Experimental data: patent EP4782453A1 (Beyang Therapeutics Co., Ltd., priority 2023, dated 2025)

What was measured:
[1] = system: MOLM-13 (carrying MLL-AF9); assay: Inhibition of proliferation of human tumor cells (Alamar Blue, 7 days), MOLM-13; format: cell-based; details: Homo sapiens, MOLM-13 cells (carrying MLL-AF9), method calls the value GI50
Method in brief: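 GI50 from Alamar Blue fluorescence after 7-day compound exposure, duplicate wells, using Day-0 and Day-7 0.1% DMSO wells as low and high controls. MV-4-11 in IMDM/10% FBS and MOLM-13 in RPMI-1640/20% FBS at 4,000 cells/well; KG-1a in IMDM/20% FBS at 3,000 cells/well.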

MEIS1 gene expression = assay: Inhibition of MEIS1 gene expression in human tumor cells (qRT-PCR), MOLM-13; format: cell-based; details: MOLM-13 (carrying MLL-AF9), 48 hours of incubation, relative MEIS1 gene expression vs GAPDH
Source text: Experimental Example 3: Evaluation of Inhibitory Activity of Compounds Against MEISI Gene Expression in Human Tumor Cells
The effect of test samples on MEIS1 gene expression in vitro cultured human leukemia cells MV-4-11 (carrying MLL-AF4), MOLM-13 (carrying MLL-AF9), and OCI-AML3 (carrying NPM1c) was studied.
• Human acute lymphoblastic leukemia cells MV-4-11, purchased from American Type Culture Collection, Catalog Number: CRL-9591; • Human acute myeloid leukemia cells MOLM-13, purchased from COBIOER BIOSCIENCES CO., LTD, Catalog Number: CBP60678; • Human acute myeloid leukemia cells OCI-AML3, purchased from COBIOER BIOSCIENCES CO., LTD, Catalog Number: CBP60817; • MEIS1 Primer/Probe, purchased from IDT, Catalog Number: 40831613; and • GAPDH Primer/Probe, purchased from IDT, Catalog Number: 22214836.
MV-4-11 cells were cultured in an IMDM medium containing 10% fetal bovine serum, or MOLM-13 and OCI-AML3 cells were cultured in an RPMI-1640 medium containing 20% fetal bovine serum, each supplemented with 100 U·mL^-1 penicillin and 100 µg·mL^-1 streptomycin. These cells were cultured at 37°C with 5% CO2. The suspensions of individual cell lines were prepared in their respective media and seeded into 48-well plates at a density of 100,000 cells/well. On the day of the experiment, a compound stock solution was diluted in a 6-fold gradient using DMSO. Each gradient-diluted stock solution was then further diluted 250-fold with a complete medium to prepare a series of working solutions at different concentrations. Next, 250 µL of working solution (containing the complete medium with a 2-fold serial concentration of the test compound or a positive control compound, or containing a control complete medium) was added to each well. After 48 hours of incubation, cells from the 48-well plate were collected into 1 mL centrifuge tubes, centrifuged at 1000 rpm for 5 minutes, and the complete medium was removed. Cells were washed twice with 1 mL PBS and centrifuged to remove PBS. Total RNA was extracted using the RNeasy Mini Kit (250) (QIAGEN, 74106). The threshold cycle (Ct) value for gene expression was determined using the HiScript II U+ One Step qRT-PCR Probe Kit (Vazyme) (Vazyme, Q223-01), with 3 replicates per sample. The prepared reaction mixture was placed in an ABI 7500 real-time PCR instrument, and the reaction proceeded following the procedures below. [formula]
Next, for the relative MEIS1 gene expression, the concentration (EC50) that inhibits 50% of relative MEIS1 gene expression was calculated using GraphPad Prism 8 software.

IC50 ([1]; 168 h) [nM]	EC50 (MEIS1 gene expression) [nM]	Compound	IC50 ([1]; MOLM-13, 168 h) [nM]
15	8.4	Cc1ncc2c(-c3ccc(F)cc3C(=O)N3CCOC[C@H]3C)cc(C3CN([C@H](CCCN4CCN(C)CC4)C(C)C)C3)cn12 [Example 323-2, (3R)-4-[5-fluoro-2-(3-methyl-6-{1-[(3R)-2-methyl-6-(4-methylpiperazin-1-yl)hexan-3-yl]azacyclobutan-3-yl}imidazo[1,5-a]pyridin-8-yl)benzoyl]-3-methylmorpholine]	–
13	–	Cc1nc(F)c2c(-c3ccc(F)cc3C(=O)N3CCOCC3C)cc(C3CN(C(CCCN4CCCC(O)C4)C(C)C)C3)cn12 (stereo not drawn) [Example 292]	–
7.3	3.3	CCN1CCN(CCC[C@H](C(C)C)N2CC(c3cc(-c4ccc(F)cc4C(=O)N4CCOC[C@H]4C)c4c(F)nc(C)n4c3)C2)CC1 [Example 277]	–
10.2	1	COCCN(C)CCC[C@H](C(C)C)N1CC(c2cc(-c3ccc(F)cc3C(=O)N3CCOC[C@H]3C)c3c(F)nc(C)n3c2)C1 [Example 200-1]	–
5.1	1	COC1CCN(CCCC(C(C)C)N2CC(c3cc(-c4ccc(F)cc4C(=O)N4CCOCC4C)c4c(F)nc(C)n4c3)C2)C1 (stereo not drawn) [Example 201-1]	–
11	–	CO[C@@H]1CCN(CCC[C@H](C(C)C)N2CC(c3cc(-c4ccc(F)cc4C(=O)N4CCOC[C@H]4C)c4c(F)nc(C)n4c3)C2)C1 [Example 202]	–
2.5	2	CCN(C(=O)c1cc(F)ccc1-c1cc(C2CN([C@H](CCCN3C[C@H]4C[C@@H]3CO4)C(C)C)C2)cn2c(C)ncc12)C(C)C [Example 379, N-ethyl-5-fluoro-2-(3-methyl-6-{1-[(3R)-2-methyl-6-[(1R,4R)-2-oxa-5-azabicyclo[2.2.1]heptan-5-yl]hexan-3-yl]azacyclobutan-3-yl}imidazo[1,5-a]pyridin-8-yl)-N-(isopropyl)benzamide]	–
12	–	CO[C@@H]1CCCN(CCC[C@H](C(C)C)N2CC(c3cc(-c4ccc(F)cc4C(=O)N4CCOC[C@H]4C)c4c(F)nc(C)n4c3)C2)C1 [Example 305]	–
25	38	CC(=O)N1CCN(CCC[C@H](C(C)C)N2CC(c3cc(-c4ccc(F)cc4C(=O)N4CCOC[C@H]4C)c4c(F)nc(C)n4c3)C2)CC1 [Example 265]	–
4.3	2.6	CCN(C(=O)c1cc(F)ccc1-c1cc(C2CN([C@H](CCCN3CCN(CCO)CC3)C(C)C)C2)cn2c(C)ncc12)C(C)C [Example 398, N-ethyl-5-fluoro-2-(6-{1-[(3R)-6-[4-(2-hydroxyethyl)piperazin-1-yl]-2-methylhexan-3-yl]azacyclobutan-3-yl}-3-methylimidazo[1,5-a]pyridin-8-yl)-N-(isopropyl)benzamide]	–
7.6	8	CCS(=O)(=O)N[C@H]1CC[C@H](CN2CC(c3cc(-c4ccc(F)cc4C(=O)N(CC(F)F)C(C)C)c4cnc(C)n4c3)C2)CC1 [Example 138]	–
9.2	1.3	CCN1CCN(CCC[C@H](C(C)C)N2CC(c3cc(-c4ccc(F)cc4C(=O)N4CCOC[C@H]4C)c4cnc(C)n4c3)C2)CC1 [Example 324-2]	–
7.7	–	CO[C@H]1CCCN(CCC[C@H](C(C)C)N2CC(c3cc(-c4ccc(F)cc4C(=O)N4CCOC[C@H]4C)c4c(F)nc(C)n4c3)C2)C1 [Example 306]	–

The remaining lines, values behind:

Compound	IC50 ([1]; 168 h) [nM]	EC50 (MEIS1 gene expression) [nM]	IC50 ([1]; MOLM-13, 168 h) [nM]
CC[C@@H](C1CCN(C(C)=O)CC1)N1CC(c2cc(-c3ccc(F)cc3C(=O)N3CCOC[C@H]3C)c3c(F)nc(C)n3c2)C1 [Example 280-1, 1-{4-[(1S)-1-[3-(1-fluoro-8-{4-fluoro-2-[(3R)-3-methylmorpholin-4-carbonyl]phenyl}-3-methylimidazo[1,5-a]pyridin-6-yl)azacyclobutan-1-yl]propyl]piperidin-1-yl}ethan-1-one]	27	23	–
CCS(=O)(=O)N[C@H]1CC[C@H](CN2CC(c3cc(-c4ccc(F)cc4C(=O)N4[C@H](C)COC[C@H]4C)c4c(F)nc(C)n4c3)C2)CC1 [Example 197, N-[(1r,4r)-4-{[3-(8-{2-[(3R,5R)-3,5-dimethylmorpholin-4-carbonyl]-4-fluorophenyl}-1-fluoro-3-methylimidazo[1,5-a]pyridin-6-yl)azacyclobutan-1-yl]methyl}cyclohexyl]ethan-1-sulfonamide]	–	–	10.2
Cc1nc(F)c2c(-c3ccc(F)cc3C(=O)N3[C@H](C)COC[C@H]3C)cc(C3CN(CC4CCOCC4)C3)cn12 [Example 208]	9.6	–	–
Cc1nc(F)c2c(-c3ccc(F)cc3C(=O)N3CCOC[C@H]3C)cc(C3CN([C@H](CCCN4C[C@H]5C[C@@H]4CO5)C(C)C)C3)cn12 [Example 353, (1R,4R)-5-[(4R)-4-[3-(1-fluoro-8-{4-fluoro-2-[(3R)-3-methylmorpholin-4-carbonyl]phenyl}-3-methylimidazo[1,5-a]pyridin-6-yl)azacyclobutan-1-yl]-5-methylhexyl]-2-oxa-5-azabicyclo[2.2.1]heptane]	5.4	2.4	–
COCCN(C)CCC[C@H](C(C)C)N1CC(c2cc(-c3ccc(F)cc3C(=O)N3[C@H](C)COC[C@H]3C)c3cnn(C)c3c2)C1 [Example 186-2, [(4R)-4-[3-(4-{2-[(3R,5R)-3,5-dimethylmorpholin-4-carbonyl]-4-fluorophenyl}-1-methyl-1H-indazol-6-yl)azacyclobutan-1-yl]-5-methylhexyl](2-methoxyethyl)methylamine]	28	–	–
CC(=O)N1CCC(CN2CC(c3cc(-c4ccc(F)cc4C(=O)N4[C@H](C)COC[C@H]4C)c4c(F)nc(C)n4c3)C2)CC1 [Example 205]	19	–	–
Cc1nc(F)c2c(-c3ccc(F)cc3C(=O)N3CCOC[C@H]3C)cc(C3CN([C@H](CN4CCN(C)CC4)C(C)C)C3)cn12 [Example 368-2, (3R)-4-[5-fluoro-2-(1-fluoro-3-methyl-6-{1-[(2S)-3-methyl-1-(4-methylpiperazin-1-yl)butan-2-yl]azacyclobutan-3-yl}imidazo[1,5-a]pyridin-8-yl)benzoyl]-3-methylmorpholine]	8.6	9.1	–
CCN(C(=O)c1cc(F)ccc1-c1cc(C2(F)CN(C(=O)C3NC4CCC3CC4)C2)cn2c(C)ncc12)C(C)C [Example 75, N-ethyl-5-fluoro-2-(6-{3-fluoro-1-[(1R,3S,4S)-2-azabicyclo[2.2.2]octan-3-carbonyl]azacyclobutan-3-yl}-3-methylimidazo[1,5-a]pyridin-8-yl)-N-(isopropyl) benzamide]	–	–	78
COCCN(C)CCCC(C(C)C)N1CC(c2cc(-c3ccc(F)cc3C(=O)N3CCOCC3C)c3cnn(C)c3c2)C1 (stereo not drawn) [Example 185]	70	–	–
CC(=O)N1CCC([C@H](C)N2CC(c3cc(-c4ccc(F)cc4C(=O)N4CCOC[C@H]4C)c4c(F)nc(C)n4c3)C2)CC1 [Example 257-2, 1-{4-[(1S)-1-[3-(1-fluoro-8-{4-fluoro-2-[(3R)-3-methylmorpholin-4-carbonyl]phenyl}-3-methylimidazo[1,5-a]pyridin-6-yl)azacyclobutan-1-yl]ethyl]piperidin-1-yl}ethan-1-one]	31	15	–
CCN(C(=O)c1cc(F)ccc1-c1cc(C2CCN(Cc3ccc(-c4cc(OC)c(OC)nn4)cc3)C2)cn2c(C)ncc12)C(C)C (stereo not drawn) [Example 83]	33	–	–
CCNC(=O)N1CCC(CN2CC(c3cc(-c4ccc(F)cc4C(=O)N4CCOC[C@H]4C)c4c(F)nc(C)n4c3)C2)CC1 [Example 261]	23	–	–
CNC(=O)N1CCC([C@H](C)N2CC(c3cc(-c4ccc(F)cc4C(=O)N4CCOC[C@H]4C)c4c(F)nc(C)n4c3)C2)CC1 [Example 264-2]	12	–	–
